Laboratory results from BindingDB's records for doi:10.1002/cbic.200900537 (University of Cambridge, 2009).

Biological target: T1, Pantothenate synthetase (Mycobacterium tuberculosis (strain ATCC 25618 / H37Rv), UniProt P9WIL5)
T1 sequence (P9WIL5 whole entry): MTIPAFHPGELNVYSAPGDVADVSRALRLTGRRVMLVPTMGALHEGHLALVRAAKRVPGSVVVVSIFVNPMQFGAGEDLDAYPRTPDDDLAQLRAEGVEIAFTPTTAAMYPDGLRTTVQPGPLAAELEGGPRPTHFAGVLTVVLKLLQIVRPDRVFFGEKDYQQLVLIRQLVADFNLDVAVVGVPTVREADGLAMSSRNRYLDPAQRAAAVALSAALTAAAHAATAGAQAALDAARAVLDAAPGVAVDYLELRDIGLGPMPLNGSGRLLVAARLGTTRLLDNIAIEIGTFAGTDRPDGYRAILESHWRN
Assay: Binding Assay
Settings: pH 7.6; 25 °C
Procedure: The dissociation constants and enthalpies was determined by isothermal titration calorimety.

## Nc1ncnc2c1ncn2[C@@H]1O[C@H](CSSCC(O)CO)[C@@H](O)[C@H]1O (stereo partly specified) [5'-Deoxy-5'-thiodenosine scaffold, 14c]
  Kd: 570 µM
